In article PMC9769880, “Diverse Sensory Repertoire of Paralogous Chemoreceptors Tlp2, Tlp3, and Tlp4 in Campylobacter jejuni” (Microbiology Spectrum, 2022):
Where two headings read alike, the source gives them in different places.

How the values were obtained:
Tlp3 [1] = assay type: cell-based, C. jejuni 11168-O
Method: (§1) The biological relevance of the binding specificities of the Tlp2,3,4 cluster was assessed by examining chemotactic responses of C. jejuni 11168-O tlp2, tlp3, and tlp4 wild-type (WT) and mutant strains using a nutrient-depleted chemotaxis assay. All ligands, with the exception of lysine and cysteine, interacted with Tlp2 and Tlp4 as attractants (Table 1), showing an ~1- to ~2-log decrease (P < 0.05) in migration toward the ligand compared to the WT strain.
(§2) Chemotaxis assays—the nutrient-depleted chemotaxis assay and the modified hard agar plug assay (tHAP)—were performed as previously described ([11], [34]). The chemotactic responses of all isogenic strains were compared to that of the C. jejuni 11168-O wild-type strain to distinguish between chemoattractants and chemorepellents. For the nutrient-depleted chemotaxis and modified hard agar plug (tHAP) assays, all differences were calculated as changes on a log10 scale. Controls were provided by using nonmotile (C. jejuni 81116 flaAB) and nonchemotactic (C. jejuni NCTC 11168 cheY) mutants ([69]) and mucin as negative and positive controls ([10]).

Tlp4 [2] = target: T1, Tlp4 (Campylobacter jejuni, UniProt Q0PBP3); assay: biochemical; assay type: binding; conditions: read-out: Tlp4 Affinity
Method: (§3) His-tagged proteins (Tlp2, -3, and -4) were prepared as previously described ([11]) DNA segments encoding the periplasmic sensory domains (33 to 286 amino acids) of Tlp2 and (38 to 297 amino acids) of Tlp4 were amplified (see Table S7), ligated into pGEM-T Easy (Promega) and subcloned into pET-19b (Novagen) (see Table S6). Recombinant proteins were expressed in E. coli BL21(DE3) using 1 mM IPTG (isopropyl-β-D-thiogalactopyranoside) and purified using His-select-nickel chromatography as described previously ([8], [11]). The purity of the proteins was confirmed by SDS-PAGE and Western blot analysis with anti-His antibodies (Bio-Rad). Protein concentrations were determined using a NanoDrop spectrophotometer (Thermo Fisher).
(§4) Surface plasmon resonance (SPR) experiments were performed as described previously ([10], [11]) with the following modifications. Briefly, purified proteins were diluted to 0.15 μM in sodium acetate (pH 4.0) and immobilized onto an active flow cell of a CM5 sensor chip with a flow rate of 5 μL/min for 7 min of contact time using a standard amine coupling protocol. Immobilized protein levels for all three proteins ranged from 6028.3 to 9779.3 response units (RU) providing a minimum expected response maximum (RMax) between 20 and 50 RU for the small molecules tested. […] All ligands were prepared in PBS (pH 7.2) and serially diluted from 0.2 to 0.0125 mM. A 10-min dissociation period was allocated after the introduction of each analyte. SPR experiments were performed in single-cycle kinetics mode using the BIAcore S200 biosensor system (Cytiva) at 25°C in PBS (pH 7.2) at a flow rate of 30 μL/min. The equilibrium dissociation constant (KD) for each analyte was determined using BIAcore S200 Evaluation software with a report point 4 s after the injection stop to account for the bulk transfer of the small molecule against a large amount of immobilized protein (as shown in Fig. S5).

Tlp2 [3] = target: T2, Tlp2 (Campylobacter jejuni, UniProt Q0PBZ3); assay: biochemical; assay type: binding; conditions: read-out: Tlp2 Affinity
Method: as §3, §4

Tlp3 [4] = target: T3, Tlp3 (Campylobacter jejuni, UniProt Q0P864); assay: STD NMR spectroscopy of arginine in complex with Tlp3; assay type: binding; conditions: 283K, 600.13 MHz; H3/H3′ and H5/H5′
Method: STD NMR experiments were performed as previously described in ([10]). […] A control sample was prepared in an identical manner without the addition of Tlp3. All NMR experiments were performed using 3-mm NMR tubes on a Bruker Avance 600 MHz spectrometer equipped with a 5-mm TXI probe with triple-axis gradients at 283K without sample spinning. ^1H NMR spectra were acquired with 32 scans and a 2-s relaxation delay over a spectral width of 6,000 Hz. Solvent suppression of the residual HDO peak was achieved by using a continuous low-power presaturation pulse during the relaxation delay. For all STD NMR experiments, the protein was saturated at −0.5 ppm in the aliphatic region of the spectrum and off-resonance at 33 ppm with a cascade of 40 selective Gaussian-shaped pulses of 50-ms duration (50 dB), which correlates to a strength of 190 Hz. A 100-μs delay between each soft pulse was applied, resulting in a total saturation time of ~2 s 2 K scans were acquired per sample. Data were obtained with interspersed acquisition of pseudo-two-dimensional on-resonance and off-resonance spectra in order to minimize the effects of temperature and magnet instability. On- and off-resonance spectra were processed separately, and the final STD NMR spectrum was obtained by subtracting the individual on- and off-resonance spectra, resulting in low-subtraction artifacts.

Tlp3^LBD K149A [5] = target: T4, Tlp3^LBD K149A (Campylobacter jejuni, UniProt Q0P864, K149A); conditions: compared to WT Tlp3^LBD, P < 0.05
Tlp2 [6] = assay type: cell-based, C. jejuni 11168-O; conditions: nutrient-depleted chemotaxis assay
Method: as §1, §2

Tlp4 [7] = assay type: cell-based, C. jejuni 11168-O; conditions: nutrient-depleted chemotaxis assay
Method: as §1, §2

Tlp3 [8] = target: T3, Tlp3; assay: Glycan/small molecule arrays with Tlp3; conditions: yes/no binding
Method: (§5) Glycan (>400 monosaccharides or complex glycans) and small molecule arrays containing amino acids and salts were performed as described previously by Day et al. ([67]). Briefly, 1 μg of purified recombinant protein was complexed with anti-His antibody (Cell Signaling Technology) and rabbit anti-mouse/goat anti-rabbit Alexa 555-IgG (Thermo Scientific) at a molar ratio of 1:0.5:0.25 and then incubated on the array for […] in phosphate-buffered saline (PBS). The array slides were scanned at 488/520 nm and analyzed using InnoScan 1100 with MAPIX software. All arrays were performed in triplicate with a total of 12 data points for each glycan tested; the complete data set and MIRAGE (i.e., minimum information regarding a glycomics experiment) results are shown in Tables S3 and S8.
(§6) Table S8 - Supplementary glycan microarray document based on M IRAGE guidelines. D O I:
(§7) Classification Guidelines
(§8) 1. Sample: Glycan Binding Sample
(§9) Origin: Helicobacter pylori SS1; produced as a recombinant His - tagged protein in E.
(§10) The preparation of Tlp2,3, and 4 is explained in the Materials and Methods section:
(§11) Expression and purification of the periplasmic domain of Tlp2,3, and 4.
(§12) Sample Sample is a His Tagged protein containing only the periplasmic receptor domain of the modifications full length Tlp2,3, and 4transmembrane protein.
(§13) Please see Materials and Methods: Tlps 2/3/4 bind to a range of ligands, including […]
(§14) Proteins were complexed with mouse anti- his antibody, with secondary and tertiary AlexaFluor555 antibodies (rabbit anti-mouse, goat anti-rabbit) at a molar ratio of 4:2:1.
(§15) The protein/antibody complex was incubated on ice for 10 mins prior to placing on the Assay protocol array. Arrays were performed with 1 µg of complexed protein incubated on the array for 20 min. Arrays were then washed 3 times in Array PBS (PBS + 2mM MgCl2 + 2mM CaCl2) then dried by centrifugation for 3 min at 300 x g . Scanning was performed us ing an Innopsys InnoScan 1100AL and analyzed using Mapix (Innopsys). Yes/no binding was determined by six positive replicate spots in three replicate experiments. Positive […]
(§16) Glycan Glycans in this study are listed in Table S2 and is a published library in doi:
(§17) Glycans were prepared in one of two ways for printing:
(§18) Glycan 1. Glycans (with IDs in number/letter format; e.g. 1A, 4C, 7K) were sourced modifications commercially from Dextra Laboratories, Elicityl and Carbosythn and were made into glycoamines using the protocol published in Day et al 2009 (doi:
(§19) Glycan arrays: We only use glycan arrays as a yes/no binding tool. Due to this we look only at binding that is unambiguously above background vs lack of binding above background. Average background + 3x standard deviation of the background of 20 sets of 4 spots of DMF:DMSO only spots is applied to determine if binding observed is […]
(§20) Only spots with values equal to or greater than this value were considered as binding from data of any tested slide. These values are slide […]
(§21) Data Small molecule arrays: We only use amino acid arrays as a yes/no binding tool. Due interpretation to this we look only at binding that is unambiguously above background vs lack of binding above background. Average background + 3x standard deviation of the background of 6 spots of PBS + 2% glycerol only spots is applied to determine if […]
(§22) Only spots with values equal to or greater than this value were considered as binding from data of any tested slide. These values are slide dependent. […]

Tlp4 [9] = target: T1, Tlp4; assay type: binding; conditions: yes/no binding
Method: as §5, §6, §7, §8, §9, §10, §11, §12, §13, §14, §15, §16, §17, §18, §19, §20, §21, §22

Tlp2 [10] = target: T2, Tlp2; assay type: binding; conditions: yes/no binding
Method: as §5, §6, §7, §8, §9, §10, §11, §12, §13, §14, §15, §16, §17, §18, §19, §20, §21, §22

Tlp3^LBD D169A [11] = target: T5, Tlp3^LBD D169A (Campylobacter jejuni, UniProt Q0P864, D169A); conditions: compared to WT Tlp3^LBD, P < 0.05
Tlp3^LBD D170A = Tlp3^LBD D170A (Campylobacter jejuni, UniProt Q0P864); assay: biochemical
Tlp3^LBD K149A [12] = target: T4, Tlp3^LBD K149A; assay: biochemical
Tlp3^LBD W151A [13] = target: T6, Tlp3^LBD W151A (Campylobacter jejuni, UniProt Q0P864, W151A); conditions: compared to WT Tlp3^LBD, P < 0.05
Tlp3^LBD D169A [14] = target: T5, Tlp3^LBD D169A; assay: biochemical
Tlp3^LBD D196A = Tlp3^LBD D196A (Campylobacter jejuni, UniProt Q0P864, D196A); assay: biochemical
Tlp3 [15] = target: T3, Tlp3; assay: biochemical; assay type: binding
Method: as §3, with “The purity of the proteins was confirmed by SDS-PAGE and Western blot analysis with anti-His antibodies (Bio-Rad).” left out
Surface plasmon resonance (SPR) experiments were performed as described previously ([10], [11]) with the following modifications. […] All ligands were prepared in PBS (pH 7.2) and serially diluted from 0.2 to 0.0125 mM. A 10-min dissociation period was allocated after the introduction of each analyte. SPR experiments were performed in single-cycle kinetics mode using the BIAcore S200 biosensor system (Cytiva) at 25°C in PBS (pH 7.2) at a flow rate of 30 μL/min. The equilibrium dissociation constant (KD) for each analyte was determined using BIAcore S200 Evaluation software with a report point 4 s after the injection stop to account for the bulk transfer of the small molecule against a large amount of immobilized protein (as shown in Fig. S5).

Tlp3^LBD W151A [16] = target: T6, Tlp3^LBD W151A; assay: biochemical
[17] = system: C. jejuni 11168-O tlp2, tlp3, and tlp4 mutant strains; assay type: cell-based; conditions: positive control
[18] = SPR KD, mean ± SD, NB = no binding

T1 sequence (Q0PBP3 entry or part of it): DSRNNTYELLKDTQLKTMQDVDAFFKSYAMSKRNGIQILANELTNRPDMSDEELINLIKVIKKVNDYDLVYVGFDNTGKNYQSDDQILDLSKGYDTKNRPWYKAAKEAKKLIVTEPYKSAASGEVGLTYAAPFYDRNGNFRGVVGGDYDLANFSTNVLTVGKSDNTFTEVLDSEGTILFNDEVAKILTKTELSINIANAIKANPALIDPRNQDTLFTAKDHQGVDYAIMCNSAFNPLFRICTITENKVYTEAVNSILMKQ
T3 sequence (Q0P864 entry or part of it): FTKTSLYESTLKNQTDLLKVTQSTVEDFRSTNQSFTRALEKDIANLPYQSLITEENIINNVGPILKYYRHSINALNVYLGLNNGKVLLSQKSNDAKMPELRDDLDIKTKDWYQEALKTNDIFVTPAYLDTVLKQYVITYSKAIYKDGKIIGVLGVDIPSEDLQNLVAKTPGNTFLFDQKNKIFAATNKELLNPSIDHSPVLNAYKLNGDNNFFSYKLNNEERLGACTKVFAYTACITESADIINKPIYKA
T2 sequence (Q0PBZ3 entry or part of it): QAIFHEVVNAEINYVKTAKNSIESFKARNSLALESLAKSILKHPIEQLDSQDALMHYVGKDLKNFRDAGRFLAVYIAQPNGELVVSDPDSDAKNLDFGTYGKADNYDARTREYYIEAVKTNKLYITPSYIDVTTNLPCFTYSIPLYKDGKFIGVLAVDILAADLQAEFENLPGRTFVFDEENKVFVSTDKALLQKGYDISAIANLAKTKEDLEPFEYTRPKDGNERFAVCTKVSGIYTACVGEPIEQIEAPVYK
T6 sequence (Q0P864 41-290 W151A): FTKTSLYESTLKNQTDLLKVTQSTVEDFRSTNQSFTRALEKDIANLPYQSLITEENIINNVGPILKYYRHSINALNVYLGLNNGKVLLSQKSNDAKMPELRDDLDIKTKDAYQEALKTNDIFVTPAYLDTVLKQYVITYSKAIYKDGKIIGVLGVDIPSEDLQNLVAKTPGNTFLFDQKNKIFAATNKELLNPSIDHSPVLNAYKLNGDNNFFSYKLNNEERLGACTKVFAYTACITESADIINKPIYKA
T4 sequence (Q0P864 41-290 K149A): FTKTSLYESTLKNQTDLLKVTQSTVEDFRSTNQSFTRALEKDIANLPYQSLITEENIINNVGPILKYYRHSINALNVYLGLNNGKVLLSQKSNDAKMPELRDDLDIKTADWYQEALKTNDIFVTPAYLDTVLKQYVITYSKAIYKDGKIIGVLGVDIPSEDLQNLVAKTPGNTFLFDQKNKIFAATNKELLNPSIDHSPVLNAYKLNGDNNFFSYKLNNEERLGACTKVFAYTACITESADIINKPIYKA
T5 sequence (Q0P864 41-290 D169A): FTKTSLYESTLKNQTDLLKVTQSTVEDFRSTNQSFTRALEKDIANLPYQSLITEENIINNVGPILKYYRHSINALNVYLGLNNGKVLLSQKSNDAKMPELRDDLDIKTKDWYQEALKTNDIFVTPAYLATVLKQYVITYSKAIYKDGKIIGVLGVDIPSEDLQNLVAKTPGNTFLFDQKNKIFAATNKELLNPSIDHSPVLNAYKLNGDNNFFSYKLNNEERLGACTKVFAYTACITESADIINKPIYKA
Chain of Tlp3^LBD D196A (Q0P864 41-290 D196A): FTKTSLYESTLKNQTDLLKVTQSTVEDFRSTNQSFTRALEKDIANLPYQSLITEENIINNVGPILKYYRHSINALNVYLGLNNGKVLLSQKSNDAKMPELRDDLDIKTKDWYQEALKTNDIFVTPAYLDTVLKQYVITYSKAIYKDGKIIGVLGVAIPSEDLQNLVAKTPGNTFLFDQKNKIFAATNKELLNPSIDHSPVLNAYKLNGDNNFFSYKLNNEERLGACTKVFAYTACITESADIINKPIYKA
Chain of Tlp3^LBD D170A (Q0P864 41-290 T170A): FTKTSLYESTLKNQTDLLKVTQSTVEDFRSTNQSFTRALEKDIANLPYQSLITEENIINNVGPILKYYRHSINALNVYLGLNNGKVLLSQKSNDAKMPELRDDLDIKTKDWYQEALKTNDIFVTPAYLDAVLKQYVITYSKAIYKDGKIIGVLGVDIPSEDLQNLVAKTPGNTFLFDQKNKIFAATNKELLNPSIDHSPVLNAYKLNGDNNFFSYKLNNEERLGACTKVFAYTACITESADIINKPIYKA

## N=C(N)NCCC[C@H](N)C(=O)O [Arginine]
Tlp3 [1]
  Tlp3 CR (chemoresponse): R
Tlp4 [2]
  Kd: > 200 µM
Tlp2 [3]
  Kd: > 200 µM
Tlp3 [4]
  saturation transfer (STD NMR): Strong saturation transfer

## OC[C@H]1OC(O)[C@@H](O)[C@@H](O)[C@@H]1O (some centres unmarked) [Mannose]
Tlp3^LBD K149A [5]
  reduction in the affinity of Tlp3^LBD, substitution K149A: 2 fold
Tlp3 [1]; chemotaxis of mutant compared to WT strain
  Tlp3 CR (chemoresponse): R
Tlp3 [1]; nutrient-depleted chemotaxis assay
  chemotactic response via Tlp3: repellents
Tlp2 [6]
  chemotactic response via Tlp2: attractants
Tlp4 [7]
  chemotactic response via Tlp4: attractants
Tlp4 [2]; [18]
  Kd: 7.8 ± 1 µM
Tlp2 [3]; [18]
  Kd: 12.9 ± 1.8 µM
Tlp3 [8]
  binding to Tlp3 on glycan/small molecule array: interacted
Tlp4 [9]
  binding to Tlp4 on glycan/small molecule array: interacted
Tlp2 [10]
  binding to Tlp2 on glycan/small molecule array: interacted
Tlp3^LBD D169A [11]
  reduction in the affinity of Tlp3^LBD, substitution D169A: 2 fold

## Cc1ncc(C[n+]2csc(CCO)c2C)c(N)n1 [Thiamine]
Tlp3^LBD D170A
  Kd: 30.6 ± 7.2 µM
Tlp3 [1]
  Tlp3 CR (chemoresponse): R
Tlp3^LBD K149A [12]
  Kd: 53.8 ± 6.6 µM
Tlp3^LBD W151A [13]
  reduction in the affinity/binding of Tlp3^LBD, substitution W151A: 1 fold
Tlp3^LBD D169A [14]
  Kd: 62 ± 8.5 µM
Tlp3^LBD D196A
  Kd: 36.8 ± 10 µM
Tlp4 [2]
  Kd: > 200 µM
Tlp2 [3]
  Kd: > 200 µM
Tlp3 [15]
  Kd: 41.4 ± 5.9 µM
Tlp3^LBD W151A [16]
  Kd: 73.3 ± 4.4 µM

## mucin
[17]
  migration toward control ligand in mutants: not affected
